Experimental findings from patent US9249517B2, “Process for production of reduced glutathione” (Kyowa Hakko Bio Co., Ltd., priority 2009, dated 2016) are described below.

The conditions of data set [1]: 25° C., 24-36 hr. The method, then:
Using an aqueous reduced glutathione solution (100 g/L, pH 2.90) and sulfuric acid, aqueous reduced glutathione solutions (100 g/L) adjusted to pH 0.6, 1.2 and 2.0 were produced.
Each solution was preserved at 25° C. for 24-36 hr, and the residual amount of reduced glutathione was quantified by high performance liquid chromatography (HPLC) under the following conditions. […] As for the impurity, the total amount of the substances other than reduced glutathione and oxidized glutathione was quantified under the following HPLC conditions, and the concentration (g/L) converted to reduced glutathione was calculated.
HPLC Conditions • column: Nucleosil 100-5 C18 φ4.6×150 mm • column temperature: 40° C. • buffer: 10% acetonitrile solution containing 0.405% sodium 1-heptanesulfonate (adjusted to pH 2.0 with phosphoric acid) • flow rate: 1.0 mL/min • detector: UV detector (wavelength 210 nm)

A short description of data set [2]: Solubility of oxidized glutathione in water. Format: physicochemical. From the text: Utilizing this characteristic, a solution of oxidized glutathione with concentration beyond saturation solubility can be prepared. […] While the concentration of the supersaturated aqueous oxidized glutathione solution containing a conducting agent other than acid is not limited as long as it can maintain supersaturation state, it is 50 g/L or more, preferably 100 g/L or more, more preferably 150 g/L or more, further preferably 200 g/L or more, most preferably 300 g/L or more.

Consider `N[C@@H](CCC(=O)N[C@@H](CS)C(=O)NCC(=O)O)C(=O)O` [reduced glutathione], for which the “reduced glutathione residual ratio” value in data set [1] (100 g/L aqueous solution at pH 2.0 or less (pH 0.6, 1.2, 2.0, sulfuric acid) vs pH 2.90, FIG. 1A) is “lower reduced glutathione residual ratio as compared to a solution at pH 2.90”. Further, the “increased amount of impurity due to hydrolysis” value in data set [1] (100 g/L aqueous solution at pH 2.0 or less vs pH 2.90, FIG. 1B) was “higher increased amount of impurity due to hydrolysis as compared to a solution at pH 2.90”.

Consider oxidized glutathione, for which the “stability of supersaturation state” value in data set [2] (ambient temperature, requires several days before crystallizing) is “stable at ambient temperature”. Moreover, the supersaturation solubility result in data set [2] (once dissolved, aqueous solution) is reported as “over 300 g/L”. Moreover, in data set [2] (water, ambient temperature (25° C.)), the “saturation solubility in water” value is no more than 20 mg/mL.
